Values joined by “and” are separate entries in the source; they are usually repeats but may differ in a detail not shown here. Equal entries are not always repeated. Toxic doses and inconclusive results are not listed. Cut-off read from the data, not from the text of the source: active = T/C of 150% or more; inactive = T/C below 125%.
Test system: L1210 leukemia ip in BDF1 mice, survival T/C
Experiment: NCI In Vivo Anticancer Drug Screen. Data for tumor model L1210 Leukemia (intraperitoneal) in B6D2F1 (BDF1) mice
Settings: endpoint: mean survival time, higher = longer survival
Summary of the method: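 Transplanted-tumor mice were given test agent; controls received vehicle only. Survival readings from the two groups were divided (treated over control).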

Measured: T/C

Nc1n[nH]c(N)n1
inactive: dose: 12.5 mg/kg/injection, schedule: Q#A X020 (ip), vehicle: saline 105 % of control | dose: 25.0 mg/kg/injection, schedule: Q01DX010 (ip), vehicle: saline 103 % of control | dose: 25.0 mg/kg/injection, schedule: Q#A X020 (ip), vehicle: saline 109 % of control | dose: 28.0 mg/kg/injection, schedule: Q03HX040 (ip), vehicle: water 105 % of control | dose: 32.0 mg/kg/injection, schedule: Q01DX015 (ip), vehicle: saline 94 % of control | dose: 48.0 mg/kg/injection, schedule: Q## X008 (ip), vehicle: saline 101 % of control | dose: 50.0 mg/kg/injection, schedule: Q01DX010 (ip), vehicle: saline 110 % of control | dose: 50.0 mg/kg/injection, schedule: Q06HX068 (ip), vehicle: water 106 % of control | dose: 56.0 mg/kg/injection, schedule: Q03HX008 (ip), vehicle: water 103 % of control | dose: 56.0 mg/kg/injection, schedule: Q03HX024 (ip), vehicle: water 111 % of control | dose: 63.0 mg/kg/injection, schedule: Q01DX015 (ip), vehicle: saline 102 % of control | dose: 96.0 mg/kg/injection, schedule: Q## X008 (ip), vehicle: saline 102 % of control | dose: 100.0 mg/kg/injection, schedule: Q01DX009 (ip), vehicle: saline 108 % of control | dose: 100.0 mg/kg/injection, schedule: Q01DX009 (sc), vehicle: saline 102 % of control | dose: 100.0 mg/kg/injection, schedule: Q06HX068 (ip), vehicle: water 110 % of control | dose: 100.0 mg/kg/injection, schedule: Q#A X034 (ip), vehicle: water 107 % of control | dose: 111.0 mg/kg/injection, schedule: Q01DX Z (ip), vehicle: methylcellulose (MC) 100 % of control | dose: 112.0 mg/kg/injection, schedule: Q12HX018 (ip), vehicle: water 111 % of control | dose: 125.0 mg/kg/injection, schedule: Q01DX015 (ip), vehicle: saline 110 % of control | dose: 125.0 mg/kg/injection, schedule: Q03HX008 (oral), vehicle: water 107 % of control | dose: 125.0 mg/kg/injection, schedule: Q03HX024 (oral), vehicle: water 105 % of control | dose: 192.0 mg/kg/injection, schedule: Q## X008 (ip), vehicle: saline 104 % of control | dose: 200.0 mg/kg/injection, schedule: Q01DX001 (ip), vehicle: saline 104 % of control and 107 % of control | dose: 200.0 mg/kg/injection, schedule: Q01DX001 (sc), vehicle: saline 104 % of control | dose: 200.0 mg/kg/injection, schedule: Q01DX006 (iv), vehicle: saline 105 % of control | dose: 200.0 mg/kg/injection, schedule: Q01DX009 (sc), vehicle: saline 108 % of control | dose: 200.0 mg/kg/injection, schedule: Q01DX010 (ip), vehicle: saline 98 % of control | dose: 200.0 mg/kg/injection, schedule: Q01DX017 (ip), vehicle: water 111 % of control | dose: 200.0 mg/kg/injection, schedule: Q## X003 (ip), vehicle: saline 110 % of control | dose: 200.0 mg/kg/injection, schedule: Q## X040 (ip), vehicle: saline 104 % of control | dose: 225.0 mg/kg/injection, schedule: Q12HX010 (ip), vehicle: water 107 % of control | dose: 250.0 mg/kg/injection, schedule: Q03HX008 (oral), vehicle: water 107 % of control | dose: 250.0 mg/kg/injection, schedule: Q03HX024 (oral), vehicle: water 102 % of control | dose: 256.0 mg/kg/injection, schedule: Q## X088 (ip), vehicle: other 98 % of control | dose: 384.0 mg/kg/injection, schedule: Q## X008 (ip), vehicle: saline 103 % of control | dose: 395.0 mg/kg/injection, schedule: Q01DX001 (ip), vehicle: saline 101 % of control and 110 % of control | dose: 400.0 mg/kg/injection, schedule: Q01DX001 (ip), vehicle: saline 106 % of control | dose: 400.0 mg/kg/injection, schedule: Q01DX001 (oral), vehicle: water 102 % of control | dose: 400.0 mg/kg/injection, schedule: Q01DX001 (sc), vehicle: saline 102 % of control | dose: 400.0 mg/kg/injection, schedule: Q01DX009 (sc), vehicle: saline 108 % of control | dose: 400.0 mg/kg/injection, schedule: Q01DX010 (ip), vehicle: saline 104 % of control | dose: 400.0 mg/kg/injection, schedule: Q## X003 (ip), vehicle: saline 106 % of control | dose: 400.0 mg/kg/injection, schedule: Q## X024 (ip), vehicle: saline 100 % of control | dose: 400.0 mg/kg/injection, schedule: Q## X040 (ip), vehicle: saline 108 % of control | dose: 450.0 mg/kg/injection, schedule: Q01DX001 (ip), vehicle: water 103 % of control | dose: 500.0 mg/kg/injection, schedule: Q01DX001 (ip), vehicle: water 97 % of control and 102 % of control | dose: 500.0 mg/kg/injection, schedule: Q01DX001 (oral), vehicle: water 104 % of control | dose: 500.0 mg/kg/injection, schedule: Q01DX005 (oral), vehicle: water 101 % of control | dose: 500.0 mg/kg/injection, schedule: Q01DX Z (ip), vehicle: methylcellulose (MC) 110 % of control | dose: 500.0 mg/kg/injection, schedule: Q03HX008 (oral), vehicle: water 108 % of control | dose: 500.0 mg/kg/injection, schedule: Q04DX003 (oral), vehicle: water 105 % of control | dose: 500.0 mg/kg/injection, schedule: Q## X006 (oral), vehicle: water 102 % of control | dose: 592.0 mg/kg/injection, schedule: Q01DX001 (ip), vehicle: saline 105 % of control and 108 % of control | dose: 675.0 mg/kg/injection, schedule: Q06HX016 (ip), vehicle: saline 100 % of control | dose: 768.0 mg/kg/injection, schedule: Q## X008 (ip), vehicle: saline 111 % of control | dose: 800.0 mg/kg/injection, schedule: Q01DX001 (ip), vehicle: saline 102 % of control and 105 % of control and 106 % of control | dose: 800.0 mg/kg/injection, schedule: Q01DX001 (oral), vehicle: water 105 % of control | dose: 800.0 mg/kg/injection, schedule: Q01DX001 (sc), vehicle: saline 110 % of control | dose: 800.0 mg/kg/injection, schedule: Q## X003 (ip), vehicle: saline 108 % of control | dose: 800.0 mg/kg/injection, schedule: Q## X024 (ip), vehicle: saline 106 % of control | dose: 806.0 mg/kg/injection, schedule: Q01DX001 (ip), vehicle: saline 104 % of control | dose: 806.0 mg/kg/injection, schedule: Q08DX002 (ip), vehicle: saline 101 % of control | dose: 888.0 mg/kg/injection, schedule: Q01DX001 (ip), vehicle: saline 106 % of control and 111 % of control | dose: 900.0 mg/kg/injection, schedule: Q01DX001 (ip), vehicle: water 104 % of control | dose: 900.0 mg/kg/injection, schedule: Q03HX024 (ip), vehicle: saline 95 % of control | dose: 900.0 mg/kg/injection, schedule: Q#A X018 (ip), vehicle: water 94 % of control | dose: 1000.0 mg/kg/injection, schedule: Q01DX001 (ip), vehicle: water 101 % of control and 103 % of control | dose: 1000.0 mg/kg/injection, schedule: Q01DX001 (oral), vehicle: water 98 % of control | dose: 1000.0 mg/kg/injection, schedule: Q04DX003 (oral), vehicle: water 107 % of control | dose: 1200.0 mg/kg/injection, schedule: Q01DX001 (ip), vehicle: saline 105 % of control | dose: 1203.0 mg/kg/injection, schedule: Q01DX001 (ip), vehicle: saline 107 % of control | dose: 1203.0 mg/kg/injection, schedule: Q04DX003 (ip), vehicle: saline 110 % of control | dose: 1203.0 mg/kg/injection, schedule: Q08DX002 (ip), vehicle: saline 102 % of control | dose: 1333.0 mg/kg/injection, schedule: Q01DX001 (ip), vehicle: saline 106 % of control and 110 % of control | dose: 1600.0 mg/kg/injection, schedule: Q01DX001 (ip), vehicle: saline 107 % of control and 110 % of control | dose: 1600.0 mg/kg/injection, schedule: Q01DX001 (oral), vehicle: water 108 % of control | dose: 1600.0 mg/kg/injection, schedule: Q01DX001 (sc), vehicle: saline 107 % of control | dose: 1600.0 mg/kg/injection, schedule: Q01DX Z (oral), vehicle: saline 109 % of control | dose: 1796.0 mg/kg/injection, schedule: Q01DX001 (ip), vehicle: saline 109 % of control | dose: 1796.0 mg/kg/injection, schedule: Q08DX002 (ip), vehicle: saline 107 % of control | dose: 1800.0 mg/kg/injection, schedule: Q01DX001 (ip), vehicle: water 103 % of control | dose: 2000.0 mg/kg/injection, schedule: Q01DX001 (ip), vehicle: saline 110 % of control | dose: 2000.0 mg/kg/injection, schedule: Q01DX001 (ip), vehicle: water 101 % of control and 103 % of control | dose: 2000.0 mg/kg/injection, schedule: Q01DX001 (oral), vehicle: water 96 % of control | dose: 2000.0 mg/kg/injection, schedule: Q01DX Z (ip), vehicle: saline 96 % of control | dose: 2000.0 mg/kg/injection, schedule: Q01DX Z (ip), vehicle: water 94 % of control | dose: 2680.0 mg/kg/injection, schedule: Q08DX002 (ip), vehicle: saline 110 % of control | dose: 4000.0 mg/kg/injection, schedule: Q01DX001 (ip), vehicle: water 108 % of control | dose: 4000.0 mg/kg/injection, schedule: Q## X006 (oral), vehicle: water 107 % of control
